What all share (format): cell-based
In one data set the test system is NCI-H660 cells. The data set is described as follows: Cell viability, CellTiter 96 aqueous one solution cell proliferation assay. The method, then: (§1) NCI-H660 and LNCaP cells were seeded on transparent 96-well plates at a density of 10^4 cells/well. […] 10 μL of a CellTiter 96 aqueous one solution cell proliferation assay buffer (Promega, USA) was added thereto, followed by incubation at 37° C. for 1 hour. Then, cell viability was evaluated by measuring absorbance at […].
(§2) NCI-H660 and LNCaP cells were seeded on transparent 96-well plates at a density of 10^4 cells/well. After 24 hours, the cells were treated with CRISPR ERG, CRISPR TMPRSS2-ERG, and 30 μM casodex, respectively, for 48 hours. 10 μL of a CellTiter 96 aqueous one solution cell proliferation assay buffer (Promega, USA) was added thereto, followed by incubation at 37° C. for 1 hour. Then, cell viability was evaluated by measuring absorbance at […].

For another data set, the system named is LNCaP cells. The data set is described as above. Here is the method:
as §1, §2

The next data set concerns TMPRSS2-ERG gene. The data set is described as follows: Expression of TMPRSS2-ERG gene by RNA extraction, cDNA synthesis and PCR. The note with it: CRISPR treated in combination with 30 μM casodex, 48 hours (FIG. 2C). Here is the method:
To identify whether the ERG gene of the cell line prepared in Example 2 was knocked out, expression of the gene was identified by extracting RNA and synthesizing cDNA.
NCI-H660 and LNCaP cell lines were seeded on 6-well plates at a density of 2×10^5 cells/well. After 24 hours, the cells were treated with CRISPR ERG, CRISPR TMPRSS2-ERG, and 30 μM casodex, respectively, for 48 hours. 1 mL of Trizol was added thereto to lyse the cells and the samples were homogenized by voltexing. 100 μL of chloroform was added thereto to separate RNA included in a transparent upper aqueous layer from proteins included in a lower organic layer. The solution was vigorously shaken and incubated at room temperature for 3 minutes. The resultant was centrifuged at 4° C. for 15 minutes at 13,000 rpm to obtain a clean aqueous layer including total RNA. Subsequently, the supernatant of the sample was transferred to a new tube and […] of isopropanol was added to each sample to precipitate RNA. The sample was incubated at room temperature for 10 minutes, and then centrifuged at 13,000 rpm at 4° C. for 15 minutes to obtain pellets of total RNA. Then, the supernatant was decanted and RNA was washed with 1 mL of 75% ethanol. […] RNA was resuspended in RNase-free water and absorbance of RNA was measured at 260 nm to determine a concentration of RNA. […]

A further data set has as its system caspase 3/7. The data set is described as follows: Expression of caspase 3/7 (luminescence assay). The method, then:
NCI-H660 and LNCaP cells were seeded on black transparent bottom 96-well plates at a density of 10^4 cells/well. After 24 hours, the cells were treated with CRISPR ERG, crisprTMPRSS2-ERG, and 30 μM casodex, respectively, for 48 hours. 50 μL of a caspase 3/7 assay buffer (Promega, USA) was added thereto, followed by incubation at room temperature for 1 hour. Then, the activity of caspase 3/7 was detected by measuring luminescence.

A further data set deals with pgp. The experiment in a line: Expression of Pgp (pgp-glo assay, ATP level by luminescence). Here is the method:
NCI-H660 and LNCaP cells were seeded on white transparent bottom 96-well plates at a density of 10^4 cells/well. After 24 hours, the cells were treated with CRISPR ERG, crisprTMPRSS2-ERG, and 30 μM casodex, respectively, for 48 hours. 20 μL of a pgp-glo assay buffer (Promega, USA) was added to all wells except for Na3VO4 condition. 20 μL of 0.25 mM Na3VO4 was added to the Na3VO4 condition. Reaction was initiated by adding 10 μL of 25 mM MgATP. The plates were mixed for a while and then incubated at 37° C. for 40 minutes. The 40 μL of an ATP detection reagent was added to all wells. Then, the plates were incubated at room temperature for 20 minutes and luminescence was measured.

Data set [1] relates to alpha tubulin, beta3 tubulin. The experiment in a line: Activity of tubulin protein (Western blotting). The conditions noted are these: LNCaP cells, knock-out (FIG. 4). Here is the method: NCI-H660 and LNCaP cell lines were seeded on 6-well plates at a density of 2×10^5 cells/well. After 24 hours, the cells were treated with CRISPR ERG, CRISPR TMPRSS2-ERG, and 30 μM casodex, respectively, for 48 hours. The cells were lysed using Pro-prep protein extraction solution (Intron Biotechnology, South Korea). Cell lysates were quantified using a BCA protein assay kit (Thermo Fisher Scientific, USA).
Then, the expression of proteins was identified by Western blotting. Specifically, SDS 5× loading buffer was added to protein samples diluted to 10-20 μg and heated for 5 minutes. The samples were placed in 4-20% Mini-protean TGX gel (Biorad, USA) and run at 120 V for 60 minutes. Then, the gel was transferred to a nitrocellulose membrane at 300 mA for 90 minutes. The membrane was blocked by 3% BSA in PBS and incubated overnight with a primary antibody in PBS containing 1% BSA at 4° C. The membrane was washed three times with PBS containing with 0.01% Tween 20. A secondary antibody was cultured in a PBS containing 1% BSA for 1 hour at room temperature. The membrane was washed three times with PBS containing 0.01% Tween 20. Then, the membrane was visualized with LAS-3000 (Fujifilm, Japan).

The mark [2] stands for this setting: LNCaP cells, knock-out in combination with 30 μM casodex (FIG. 3C).
The mark [3] stands for this setting: normal and resistant LNCaP cells, knock-out alone (FIG. 3C).

Regarding `CC(O)(CS(=O)(=O)c1ccc(F)cc1)C(=O)Nc1ccc(C#N)c(C(F)(F)F)c1` (stereo not drawn) [casodex], the cell viability entry is “significantly reduced” in the data set on NCI-H660 cells (30 μM casodex in combination with CRISPR TMPRSS2-ERG, 48 hours, compared with CRISPR TMPRSS2-ERG alone (FIG. 2B)); “significantly reduced” with NCI-H660 cells (casodex concentration in the range of 100 μM to 200 μM (FIG. 2B)); “significantly reduced” in the data set with LNCaP cells (30 μM casodex in combination with CRISPR TMPRSS2-ERG, 48 hours, compared with CRISPR TMPRSS2-ERG alone (FIG. 2A)); “significantly reduced” in the data set on LNCaP cells (casodex concentration in the range of 100 μM to 200 μM (FIG. 2A)). For the same molecule, the “expression level of TMPRSS2-ERG gene” value in the data set on TMPRSS2-ERG gene (LNCaP cell line) and in the data set on TMPRSS2-ERG gene (NCI-H660 cell line) was “significantly reduced” throughout. The “expression of caspase 3/7” value in the data set on caspase 3/7 (30 μM casodex in combination with CRISPR TMPRSS2-ERG, 48 hours, compared with CRISPR TMPRSS2-ERG alone (FIG. 2D)) is recorded as “more significantly increased”.
In the case of “CRISPR ERG: CRISPR sgRNA for ERG, 5′TGCCTACGGAACGCCACACCTGG 3′, delivered with Cas9 nuclease to knock out ERG (listed as DNA, chemistry not given here; the letters are possibly those of the target site)”, the ATP level entry in the data set with pgp (setting [2]) is recorded as “significantly increased”. Moreover, the ATP level result in the data set on pgp (setting [3]) is reported as “significantly increased”. Besides, in data set [1], the “amount of polymeric alpha tubulin” value is given as “decreased”, the “amount of water-soluble alpha tubulin” value is recorded as “increased” and the beta3 tubulin entry is listed as “no significant difference”.
Take “CRISPR TMPRSS2-ERG: CRISPR sgRNA for TMPRSS2-ERG, 5′AAGGCTTCCTGCCGCGCTCCAGG 3′, delivered with Cas9 nuclease to knock out TMPRSS2-ERG (listed as DNA, chemistry not given here; the letters are possibly those of the target site)”: in the data set with pgp (setting [2]), the ATP level entry is on record as “significantly increased”. Moreover, the ATP level entry in the data set with pgp (setting [3]) is reported as “significantly increased”. Further, in data set [1], the “amount of polymeric alpha tubulin” value was “decreased”, the “amount of water-soluble alpha tubulin” value is recorded as “increased” and the beta3 tubulin entry is reported as “no significant difference”. In the data set with caspase 3/7 (cell line treated with CRISPR TMPRSS2-ERG alone, 48 hours (FIG. 2D)), the “expression of caspase 3/7” value was “significantly increased”.

For the origin of these results see patent US20200123271A1, “COMPOSITION FOR ENHANCING SENSITIVITY OF PROSTATE CANCER TO ANTICANCER DRUG AND USE THEREOF” (KOREA INSTITUTE OF SCIENCE AND TECHNOLOGY, priority 2018, published 2020).
